Holding throughout (type): biochemical
Experiment [1] deals with LCK (Homo sapiens, UniProt P06239). The experiment is described as follows: Inhibition of a panel of kinases, in vitro HotSpot kinase assay: LCK. Conditions: E compounds, Table 17; read-out: IC50 LCK.
Experiment [2] has as its target T1, BTK-WT (Homo sapiens, UniProt Q06187).
T1 construct: purified from insect cells as a full-length construct containing an N-terminal 6X-His tag; His6 (N); made in house; host or cells: insect cells (baculovirus Sf21 in Method B)
Description: Btk in vitro inhibitory activity (one of Method A TR-FRET, Method B electrophoretic mobility shift, Method C radiometric filter binding). The conditions noted are these: E compounds, Table 17; read-out: IC50 BTK-WT.

In experiment [3] the target is T2, ITK (Homo sapiens, UniProt Q08881).
T2 sequence (Q08881 1-620): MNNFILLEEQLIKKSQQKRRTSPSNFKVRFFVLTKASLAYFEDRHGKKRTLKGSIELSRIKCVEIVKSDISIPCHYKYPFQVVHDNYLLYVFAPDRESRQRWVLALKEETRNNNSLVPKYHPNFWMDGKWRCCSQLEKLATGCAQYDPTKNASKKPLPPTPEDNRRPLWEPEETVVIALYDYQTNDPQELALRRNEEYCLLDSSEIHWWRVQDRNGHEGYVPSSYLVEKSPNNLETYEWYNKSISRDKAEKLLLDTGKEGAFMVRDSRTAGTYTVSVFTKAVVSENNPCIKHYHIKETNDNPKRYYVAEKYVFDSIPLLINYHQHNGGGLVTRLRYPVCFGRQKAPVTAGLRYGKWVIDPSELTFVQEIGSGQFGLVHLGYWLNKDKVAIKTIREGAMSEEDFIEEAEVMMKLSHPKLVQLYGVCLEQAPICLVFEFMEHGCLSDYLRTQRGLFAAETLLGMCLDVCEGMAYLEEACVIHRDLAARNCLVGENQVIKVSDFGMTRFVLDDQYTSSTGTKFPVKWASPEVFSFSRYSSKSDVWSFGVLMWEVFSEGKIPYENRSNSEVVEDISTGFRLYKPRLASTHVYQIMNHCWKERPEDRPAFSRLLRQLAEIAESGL
Description: Inhibition of a panel of kinases, in vitro HotSpot kinase assay: ITK. The conditions noted are these: E compounds, Table 17. The method, then:
The degree of inhibition of a panel of kinases is determined using the in vitro HotSpot kinase assay (purified enzymes, ^33P-ATP, an appropriate substrate and 1 μM ATP).

T1 sequence (Q06187 whole entry): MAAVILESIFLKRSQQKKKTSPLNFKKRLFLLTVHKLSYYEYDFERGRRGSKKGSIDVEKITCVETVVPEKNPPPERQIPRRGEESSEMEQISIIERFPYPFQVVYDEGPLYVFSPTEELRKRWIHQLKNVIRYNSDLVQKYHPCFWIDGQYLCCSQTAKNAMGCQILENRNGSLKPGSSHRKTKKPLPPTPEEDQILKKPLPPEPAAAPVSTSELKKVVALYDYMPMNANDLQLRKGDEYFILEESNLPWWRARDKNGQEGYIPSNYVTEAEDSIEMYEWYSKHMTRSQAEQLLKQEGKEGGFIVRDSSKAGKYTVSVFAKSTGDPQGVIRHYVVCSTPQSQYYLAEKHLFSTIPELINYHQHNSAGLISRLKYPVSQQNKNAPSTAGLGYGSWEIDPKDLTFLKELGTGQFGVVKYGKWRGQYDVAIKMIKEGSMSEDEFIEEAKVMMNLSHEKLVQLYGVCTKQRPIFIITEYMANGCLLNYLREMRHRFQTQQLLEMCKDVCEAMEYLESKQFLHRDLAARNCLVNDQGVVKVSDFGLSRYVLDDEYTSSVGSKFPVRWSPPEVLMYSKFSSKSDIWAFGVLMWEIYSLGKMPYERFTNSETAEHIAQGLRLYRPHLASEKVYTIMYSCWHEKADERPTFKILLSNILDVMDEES
Sequence of LCK (P06239 whole entry): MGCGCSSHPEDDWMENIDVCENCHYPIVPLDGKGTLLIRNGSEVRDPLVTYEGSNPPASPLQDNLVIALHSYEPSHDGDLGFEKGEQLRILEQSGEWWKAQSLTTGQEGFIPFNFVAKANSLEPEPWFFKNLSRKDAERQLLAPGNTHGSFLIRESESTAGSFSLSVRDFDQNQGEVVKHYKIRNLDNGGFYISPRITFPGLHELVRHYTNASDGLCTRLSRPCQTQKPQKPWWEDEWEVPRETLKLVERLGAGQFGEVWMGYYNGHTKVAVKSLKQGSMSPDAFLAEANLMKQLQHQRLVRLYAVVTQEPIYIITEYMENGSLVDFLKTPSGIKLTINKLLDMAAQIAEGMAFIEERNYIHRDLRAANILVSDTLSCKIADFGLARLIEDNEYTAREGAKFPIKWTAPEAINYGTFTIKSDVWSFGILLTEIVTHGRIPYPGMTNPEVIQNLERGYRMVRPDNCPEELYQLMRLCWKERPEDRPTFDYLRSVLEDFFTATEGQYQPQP

A word on the IC50: it is the concentration needed to halve the response being measured. Take `C=CC(=O)N1CCC[C@@H](N(C)c2cnc(C(N)=O)c(Nc3ccc(C(C)C)cc3)n2)C1` [Example E-102, (R)-5-((1-acryloylpiperidin-3-yl)(methyl)amino)-3-(4-isopropylphenylamino) pyrazine-2-carboxamide]: the values for the IC50 in experiment [1], in experiment [2] and in experiment [3] were 1 to 10 µM, at most 0.01 µM and 0.01 to 0.1 µM, respectively.

These data come from patent publication US20210070748A1, “INHIBITORS OF BRUTONS TYROSINE KINASE” (Pharmacyclics LLC, priority 2015, published 2021).
